Columns and labels:
Treg cells = test: Treg expansion in activated mouse splenocytes in vitro; format: cell-based; details: mouse splenocytes stimulated with anti-CD3 and anti-CD28 for 96 hours; FIG. 1
Method: Mouse splenocytes were harvested and single cell suspension stimulated in vitro with anti-CD3 and anti-CD28 antibodies for 96 hours. Treatment with 6-(4-tert-butylphenoxy)pyridin-3-amine, during the same interval of time, caused an expansion of immunosuppressive regulatory T cells (Tregs). Each bar represents the mean±SD (N=3 replicates).
(§1) Human PBMCs and mouse splenocyte in vitro stimulation and treatment: Human peripheral blood mononuclear cells (PBMCs) and mouse splenocytes from donors were stimulated in vitro with anti-CD3 and anti-CD28 antibodies. The stimulated cells were simultaneously treated with compounds for 96 hours. The T cells were profiled for different cell surface and intracellular markers and proliferation by flow cytometry.
Flow cytometry analysis: Flow cytometry analysis was performed to quantify cell surface and intracellular markers expression and measure cell division index.
Viability staining: Cells were transferred into a 96 well conical bottom plate and washed with serum free PBS1×. Cells were incubated with Zombie NIR (Biolegend #423105)+FC block ([…]) for 20 minutes at 4° C. […]
FOXP3 nuclear staining: Cells were fixed and permeabilized with Foxp3 Transcription Factor Staining Buffer Set (ThermoFisher #00-5523) for 20 minutes at room temperature. […] Results are finally analysed with the software FlowJo v.10.7.1.

IL-6 [1] = test: ELISA of supernatant from activated human PBMC cultures: IL-6; format: cell-based; details: control 0%
Method: as §1
ELISA assay: Supernatant from activated human PBMC cultures described above was separated from cells at the end of culture time. Key cytokines (IL-6, IFN-γ, IL-17) were quantified using sandwich ELISA reagents set (Diaclone) following manufacturer's instruction manual.

IFNG [2] = test: Cytokine profiling in human patient plasma (MSD): IFNG; format: in vivo; details: human patients, day 29 on treatment vs baseline pre-treatment
Method: (§2) Cytokine profiling in human plasma samples: Plasma samples from patients treated with 6-(4-tert-butylphenoxy)pyridin-3-amine were collected and stored at −80° C. until analysed. Cytokine and chemokine profiling was performed using MesoScale Discovery (MSD) platform and three assay panels: 1) Pro-inflammatory panel human, 2) Human IL-6 assay S-Plex, 3) Human IL-10 assay S-Plex.

IL-10 = test: Cytokine profiling in human patient plasma (MSD): IL-10; format: in vivo; details: vs baseline
Method: as §2

[3] = tested on: NSG mice injected with human PBMCs (GvHD); test: Humanized GvHD mouse model, ex vivo pre-treated PBMCs plus in vivo treatment; details: sum of individual scores; label = ex vivo PBMC treatment/in vivo treatment; DMSO/Vehicle 7.8
Method: Humanized GvHD mouse model: 6-8 weeks old NSG mice were intraperitoneally injected with 10 million human peripheral blood mononuclear cells (PBMCs) as below:
A cumulative GvHD clinical score was calculated by addition of scores for individual parameters (e.g. cumulative score=BWL+posture+activity+fur texture+skin integrity+paleness).
Ex-vivo pre-treatment of PBMCs and in-vivo treatment of mice: Human PBMCs were ex-vivo treated with either DMSO or 6-(4-tert-butylphenoxy)pyridin-3-amine and then intraperitoneally injected into NSG mice. Mice were in vivo treated with different compounds as below: • i. DMSO ex vivo hPBMCs treatment (7 hrs), plus vehicle in vivo treatment • ii. DMSO ex vivo hPBMCs treatment (7 hrs), plus 6-(4-tert-butylphenoxy)pyridin-3-amine in vivo treatment for 3 days • iii. 6-(4-tert-butylphenoxy)pyridin-3-amine ex vivo hPBMCs treatment (7 hrs), plus 6-(4-tert-butylphenoxy)pyridin-3-amine in vivo treatment for 3 days • iv. DMSO ex vivo PBMCs treatment (7 hrs) plus Ruxolitinib in vivo treatment for 3 days • v. 6-(4-tert-butylphenoxy)pyridin-3-amine ex vivo hPBMCs treatment (7 hrs), plus Ruxolitinib in vivo treatment for 3 days
Following PBMC injections, mice were treated with vehicle or 6-(4-tert-butylphenoxy)pyridin-3-amine or Ruxolitinib starting at day 0. Mice were monitored from 60-85 days for symptoms of GvHD and scored according to a standard clinical scoring system for GvHD (Naserian et al., 2018) (see table 1) and a cumulative clinical score was obtained by addition of clinical score for individual parameters. A maximum score of 6 is measured when reaching endpoint. Cell proliferation assay: The effect of compounds on T cell proliferation was quantified using Cell trace violet (CTV). PBMCs/splenocytes were incubated with CTV for 20 minutes at 37° C. Cells were washed twice with RPMI complete medium. CTV labelled cells were stimulated with anti-CD3 and anti-CD28 antibodies and treated with control or compounds and cultured at 37° C. for 96 hours. The cell division index was measured by flow cytometry.

IFNG [4] = test: Cytokine analysis in allogeneic bone marrow transplant (LEGENDplex): IFNG; format: in vivo, mouse; details: allo-BM+splenocyte transplanted mice, day 36, vs vehicle; FIG. 6
Method: (§3) Allogeneic Bone marrow transplant: Recipient Balb/c mice were irradiated twice 3.75Gy (T=0 and T=4 h) in an X-ray source irradiator before transplantation at T=8 h. Treatment with antibiotics (Nopil) and analgesic (Dafalgan) was supplemented to drinking water 4 days before injection. Irradiated recipient Balb/c mice were transplanted with 5 million T cell depleted bone marrow+1 million splenocytes. Allogeneic recipient animals were treated with vehicle or 6-(4-tert-butylphenoxy)pyridin-3-amine subcutaneously at 20 mg/kg for two days immediately after allo-BM transplant, given a 10 days treatment holiday to recover body weight loss due to whole body irradiation and then treatment continued at 20 mg/kg. […] Animals were monitored for symptoms of GvHD development (severe body weight loss, alopecia and diarrhea.
(§4) Cytokine analysis in allogeneic Bone marrow transplant: The recipient animals were bled on day 36 and blood plasma was extracted to determine inflammatory cytokine concentration (IFNγ, IL-6, IL-17a) by LEGENDplex™ multiplexed assay.

IL-17 = test: Cytokine analysis in allogeneic bone marrow transplant (LEGENDplex): IL-17; format: in vivo, mouse; details: allo-BM+splenocyte transplanted mice, day 36, vs vehicle; FIG. 6
Method: as §3, §4

IL-6 [5] = test: Cytokine analysis in allogeneic bone marrow transplant (LEGENDplex): IL-6; format: in vivo, mouse; details: allo-BM+splenocyte transplanted mice, day 36, vs vehicle; FIG. 6
Method: as §3, §4

CC(C)(C)c1ccc(Oc2ccc(N)cn2)cc1 [6-(4-tert-butylphenoxy)pyridin-3-amine]
expansion of Treg cells (Treg cells): expansion of Treg cells
Percentage downregulation of IL-6 (IL-6 [1]): 61%
Percentage downregulation of IFNG in blood plasma (IFNG [2]): 90% (day 29 on treatment)
Percentage upregulation of IL-10 in blood plasma (IL-10): 60%
Cumulative GvHD score [3]: decreased cumulative GvHD score significantly
IFNG in blood plasma (IFNG [4]): downregulation
IL-17 in blood plasma (IL-17): downregulation
IL-6 in blood plasma (IL-6 [5]): downregulation

Source: patent US20240269120A1, “Method for Treating an Autoimmune and Inflammatory Disease” (Cellestia Biotech AG, priority 2021, published 2024)
